Assay results published in patent publication US20240270821A1, “GIP/GLP1/GCG TRI-RECEPTOR AGONISTS AND USES THEREOF” (priority 2023, published 2024).
Like-named read-outs stand apart in the source and are kept apart here. Starred links: 1 amine or outer side, 2 acyl side, 3 side chain; linkers in the order of their positions; H or OH if unused. Non-standard residues stand in square brackets, D forms with d. Groups on a side chain read outwards from the residue. No end group written: not given here. *: point of attachment. C20 diacid = O=C(O)CCCCCCCCCCCCCCCCCCC(=O)*; C18 diacid = O=C(O)CCCCCCCCCCCCCCCCC(=O)*; γGlu = O=C(O)[C@H](CCC(=O)[*:2])N[*:1]; 4Pal = N[C@@H](Cc1ccncc1)C(=O)O; αMeL = CC(C)C[C@](C)(N)C(=O)O; Orn = NCCC[C@H](N)C(=O)O; AEEA = NCCOCCOCC(=O)O; Aib = CC(C)(N)C(=O)O

Experiments:
Assay type in all cases: cell-based
hGIPR [1] = molecular target: T1, hGIPR (Homo sapiens, UniProt P48546); experiment: Functional cAMP activity in the presence of 1% HSA
T1 sequence (P48546 22-466): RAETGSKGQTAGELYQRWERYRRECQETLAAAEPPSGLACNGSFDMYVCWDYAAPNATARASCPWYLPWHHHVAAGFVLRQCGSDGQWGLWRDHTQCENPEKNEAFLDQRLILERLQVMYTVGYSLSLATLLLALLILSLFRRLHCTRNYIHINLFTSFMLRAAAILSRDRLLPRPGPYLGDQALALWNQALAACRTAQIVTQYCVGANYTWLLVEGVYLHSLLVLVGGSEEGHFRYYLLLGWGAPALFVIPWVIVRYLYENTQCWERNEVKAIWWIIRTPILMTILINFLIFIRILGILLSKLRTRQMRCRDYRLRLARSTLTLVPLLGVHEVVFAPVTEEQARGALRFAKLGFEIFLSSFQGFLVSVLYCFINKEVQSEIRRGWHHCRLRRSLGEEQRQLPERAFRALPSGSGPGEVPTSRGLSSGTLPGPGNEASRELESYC

human GLP1-R = human GLP1-R (Homo sapiens, UniProt P43220); experiment: GLP1-R internalization assay in HEK293 cells; settings: for Internalization % TOP: normalized to maximum concentration of GLP-1 (100%)
hGLP-1R [2] = molecular target: T2, hGLP-1R (Homo sapiens, UniProt P43220); experiment: Functional cAMP activation in the presence of 0.1% casein (no HSA);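 also: intracellular cAMP rise after 30 min at 37 °C read by HTRF, normalized between buffer only (0%) and maximal control ligand (100%), four-parameter variable-slope fit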
Experimental: After a 30-minute incubation at 37° C., the resulting increase in intracellular cAMP is quantitatively determined using the CisBio CAMP Dynamic 2 HTRF Assay Kit (62AM4PEJ). Briefly, cAMP levels within the cell are detected by adding the cAMP-d2 conjugate in cell lysis buffer followed by the antibody anti-cAMP-Eu^3+-Cryptate, also in cell lysis buffer.
Intracellular cAMP levels are determined by extrapolation using a standard curve. Dose response curves of compounds are plotted as the percentage of stimulation normalized to minimum (buffer only) and maximum (maximum concentration of each control ligand) values and analyzed using a four parameter non-linear regression fit with a variable slope (Genedata Screener 13). EC50 is the concentration of compound causing half-maximal simulation in a dose response curve. Each relative EC50 value for the Geometric mean calculation is determined from a curve fitting.

human GcgR = human GcgR (Homo sapiens, UniProt P47871); experiment: Functional cAMP activity in the presence of 1% HSA
hGIPR [3] = molecular target: T1, hGIPR; experiment: Functional cAMP activation in the presence of 0.1% casein (no HSA);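 also: intracellular cAMP rise after 30 min at 37 °C read by HTRF against a standard curve, scaled between buffer alone (0%) and top control ligand concentration (100%), four-parameter fit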
hGLP-1R [4] = molecular target: T2, hGLP-1R; experiment: Functional cAMP activity in the presence of 1% HSA
hGcgR = hGcgR (Homo sapiens, UniProt P47871); experiment: Functional cAMP activation in the presence of 0.1% casein (no HSA);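 also: intracellular cAMP rise after 30 min at 37 °C, read by HTRF against a cAMP standard curve, scaled from buffer only (0%) to maximal control ligand response (100%)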
[5] = HEK293 cells expressing SNAP-GLP-1R, read-out: GLP1R Internalization EC50
[6] = in the presence of 0.1% casein (no HSA), geometric mean, read-out: Relative cAMP EC50, hGLP-1R
[7] = in the presence of 0.1% casein (no HSA), geometric mean, read-out: Relative cAMP EC50, hGIPR
[8] = read-out: cAMP Rel EC50, hGLP-1R
[9] = in the presence of 0.1% casein (no HSA), geometric mean, read-out: Relative cAMP EC50, hGcgR

T2 sequence (P43220 24-463): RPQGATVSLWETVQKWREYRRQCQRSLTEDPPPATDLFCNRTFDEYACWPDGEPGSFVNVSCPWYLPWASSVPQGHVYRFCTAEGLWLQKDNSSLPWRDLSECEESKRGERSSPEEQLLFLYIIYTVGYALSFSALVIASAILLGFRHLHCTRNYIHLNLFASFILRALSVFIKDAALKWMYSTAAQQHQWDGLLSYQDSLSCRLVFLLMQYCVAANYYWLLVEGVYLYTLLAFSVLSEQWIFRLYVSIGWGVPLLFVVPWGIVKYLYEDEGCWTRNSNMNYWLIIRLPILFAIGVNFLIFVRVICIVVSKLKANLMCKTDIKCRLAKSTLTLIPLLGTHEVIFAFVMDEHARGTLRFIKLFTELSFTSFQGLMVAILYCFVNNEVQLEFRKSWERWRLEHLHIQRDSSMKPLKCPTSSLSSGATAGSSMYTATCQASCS
Chain of human GLP1-R (P43220 24-463): as above
Chain of human GcgR (P47871 26-477): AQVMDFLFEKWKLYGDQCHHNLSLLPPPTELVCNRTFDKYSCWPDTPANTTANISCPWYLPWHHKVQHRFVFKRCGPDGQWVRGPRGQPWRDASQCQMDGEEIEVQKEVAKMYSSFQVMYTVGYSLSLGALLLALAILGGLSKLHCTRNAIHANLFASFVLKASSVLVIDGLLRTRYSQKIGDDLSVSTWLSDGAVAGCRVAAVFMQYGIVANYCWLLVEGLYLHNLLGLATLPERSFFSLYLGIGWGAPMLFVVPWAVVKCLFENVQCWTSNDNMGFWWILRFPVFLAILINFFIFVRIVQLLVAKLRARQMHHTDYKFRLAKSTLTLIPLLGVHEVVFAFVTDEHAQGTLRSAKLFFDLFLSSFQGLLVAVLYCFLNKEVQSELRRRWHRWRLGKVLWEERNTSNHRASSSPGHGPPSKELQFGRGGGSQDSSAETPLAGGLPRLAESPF
Chain of hGcgR (P47871 26-477): as above

| Molecule | EC50 (hGIPR [1]; read-out: cAMP Rel EC50, hGIPR) [nM] | EC50 (human GLP1-R; [5]) [nM] | Internalization % TOP (human GLP1-R) [%] | EC50 (hGLP-1R [2]; [6]) [nM] | EC50 (human GcgR; read-out: cAMP Rel EC50, hGcgR) [nM] | EC50 (hGIPR [3]; [7]) [nM] | EC50 (hGLP-1R [4]; [8]) [nM] | EC50 (hGcgR; [9]) [nM] | EC50 (hGIPR [1]) [nM] | EC50 (human GLP1-R) [nM] | EC50 (hGLP-1R [2]) [nM] | EC50 (human GcgR) [nM] | EC50 (hGIPR [3]) [nM] | EC50 (hGLP-1R [4]) [nM] | EC50 (hGcgR) [nM] |
| --- | --- | --- | --- | --- | --- | --- | --- | --- | --- | --- | --- | --- | --- | --- | --- |
| H-Y[Aib]QGTFTSDFSK[αMeL]LDKK([AEEA-AEEA-γGlu-C20 diacid])AQ[Aib]AFIEYLLEGGPSSGAPPPGEG-NH2 [Example 17] | 91.7 | 66.2 | 72.2 | 2.96 | 2040 | 0.317 | 543 | 8.33 |  |  |  |  |  |  |  |
| CC[C@H](C)[C@H](NC(=O)[C@H](Cc1ccccc1)NC(=O)[C@H](C)NC(=O)C(C)(C)NC(=O)[C@H](CCC(N)=O)NC(=O)[C@H](C)NC(=O)[C@H](CCCCNC(=O)COCCOCCNC(=O)CC[C@H](NC(=O)CCCCCCCCCCCCCCCCC(=O)O)C(=O)O)NC(=O)[C@H](CCCCN)NC(=O)[C@H](CC(=O)O)NC(=O)[C@H](CC(C)C)NC(=O)[C@](C)(CC(C)C)NC(=O)[C@H](CCCN)NC(=O)[C@H](CO)NC(=O)[C@H](Cc1ccccc1)NC(=O)[C@H](CC(=O)O)NC(=O)[C@H](CO)NC(=O)[C@@H](NC(=O)[C@H](Cc1ccccc1)NC(=O)[C@@H](NC(=O)CNC(=O)[C@H](CCC(N)=O)NC(=O)C(C)(C)NC(=O)[C@@H](N)Cc1ccc(O)cc1)[C@@H](C)O)[C@@H](C)O)C(=O)N[C@@H](CCC(=O)O)C(=O)N[C@@H](Cc1ccc(O)cc1)C(=O)N[C@@H](CC(C)C)C(=O)N[C@@H](CC(C)C)C(=O)N[C@@H](CCC(=O)O)C(=O)N[C@H](C)C(=O)NCC(=O)N1CCC[C@H]1C(=O)N[C@@H](CO)C(=O)N[C@@H](CO)C(=O)NCC(=O)N[C@@H](C)C(=O)N1CCC[C@H]1C(=O)N1CCC[C@H]1C(=O)N1CCC[C@H]1C(=O)N[C@@H](CO)C(=O)NCC(=O)N[C@@H](CCC(=O)O)C(N)=O [Example 129] | 24.3 | 22.5 | 40.6 | 1.87 | 510 | 0.134 | 284 | 2.01 |  |  |  |  |  |  |  |
| Y[Aib]QGTFTSDFS[Orn][αMeL]LDKK([AEEA-AEEA-γGlu-C18 diacid])AQ[Aib]AFIEYLLE[dA]GPSSGEPPPSEG-NH2 [Example 116] | 40.4 | 80.7 | 46.2 | 7.83 | 882 | 0.382 | 401 | 3.96 |  |  |  |  |  |  |  |
| H-Y[Aib]QGTFTSDFSR[αMeL]LDKK([AEEA-γGlu-C18 diacid])AQ[Aib]AFIEYLLE[Aib]GPSSGAPPPSGS-NH2 [Example 79] |  |  | 45.3 |  |  |  |  |  | 14.3 | 56.6 | 1.8 | 903 | 0.0773 | 437 | 3.08 |
| Y[Aib]QGTFTSDFSK[αMeL]LDKK([AEEA-γGlu-C18 diacid])AQ[Aib]QFIEYLLAGGPSSGEPPPSEG-NH2 [Example 26] | 35.4 | 96.1 | 75.6 | 3.44 | 980 | 0.2 | 623 | 4.82 |  |  |  |  |  |  |  |
| H-Y[Aib]QGTFTSDFSK[αMeL]LDKK([AEEA-γGlu-C20 diacid])AQ[Aib]AFIEYLLAGGPSSGAPPPSGG-NH2 [Example 12] | 30.2 | 48.5 | 75.3 | 1.46 | 1490 | 0.17 | 216 | 12.2 |  |  |  |  |  |  |  |
| H-Y[Aib]QGTFTSDFS[Orn][αMeL]LDKK([AEEA-AEEA-γGlu-C18 diacid])AQ[Aib]AFIEYLLEGGPSSGAPPPSGE-NH2 [Example 107] | 61.3 | 150 | 45.1 | 8.5 | 1690 | 0.426 | 1110 | 10.8 |  |  |  |  |  |  |  |
| H-Y[Aib]QGTFTSDFSK[αMeL]LDKK([AEEA-γGlu-C20 diacid])AQ[Aib]AFIEYLLAGGPSSGEPPPSGE[AEEA]-NH2 [Example 33] | 70.7 | 106 | 64.6 | 1.71 | 1310 | 0.285 | 436 | 7.04 |  |  |  |  |  |  |  |
| H-Y[Aib]QGTFTSDFS[Orn][αMeL]LDKK([AEEA-γGlu-C18 diacid])AQ[Aib]AFIEYLIE[Aib]GESSGAPPPSGS-NH2 [Example 218] | 15 | 80.5 | 35 | 0.76 | 1480 | 0.0853 | 152 | 7.89 |  |  |  |  |  |  |  |
| H-Y[Aib]QGTFTSDFS[Orn][αMeL]LDKK([AEEA-γGlu-C20 diacid])AQ[Aib]AFIEWLLEGGPSSGAPPPSGS-NH2 [Example 78] | 78.4 | 78.2 | 55 | 1.93 | 2640 | 0.228 | 560 | 7.06 |  |  |  |  |  |  |  |
| H-Y[Aib]QGTFTSDYS[Orn][αMeL]LDKK([AEEA-γGlu-C18 diacid])AQ[Aib]AFIEYLLEGGESSGAPPPSGS-NH2 [Example 359] | 103 | 49.6 | 74.4 | 4.61 | 957 | 0.281 | 826 | 2.1 |  |  |  |  |  |  |  |
| H-Y[Aib]QGTFTSD[4Pal]SR[αMeL]LDKK([AEEA-γGlu-C18 diacid])AQ[Aib]AFIEYLLAGGPSSGAPPPSGE-NH2 [Example 113] | 32.3 | 39.5 | 64.6 | 3.93 | 2090 | 0.24 | 467 | 12 |  |  |  |  |  |  |  |
| CC[C@H](C)[C@H](NC(=O)[C@H](Cc1ccccc1)NC(=O)[C@H](C)NC(=O)C(C)(C)NC(=O)[C@H](CCC(N)=O)NC(=O)[C@H](C)NC(=O)[C@H](CCCCNC(=O)CC[C@H](NC(=O)CC[C@H](NC(=O)CC[C@H](NC(=O)CCCCCCCCCCCCCCCCC(=O)O)C(=O)O)C(=O)O)C(=O)O)NC(=O)[C@H](CCCCN)NC(=O)[C@H](CC(=O)O)NC(=O)[C@H](CC(C)C)NC(=O)[C@](C)(CC(C)C)NC(=O)[C@H](CCCN)NC(=O)[C@H](CO)NC(=O)[C@H](Cc1ccccc1)NC(=O)[C@H](CC(=O)O)NC(=O)[C@H](CO)NC(=O)[C@@H](NC(=O)[C@H](Cc1ccccc1)NC(=O)[C@@H](NC(=O)CNC(=O)[C@H](CCC(N)=O)NC(=O)C(C)(C)NC(=O)[C@@H](N)Cc1ccc(O)cc1)[C@@H](C)O)[C@@H](C)O)C(=O)N[C@@H](CCC(=O)O)C(=O)N[C@@H](Cc1ccc(O)cc1)C(=O)N[C@@H](CC(C)C)C(=O)N[C@@H](CC(C)C)C(=O)N[C@@H](CCC(=O)O)C(=O)N[C@H](C)C(=O)NCC(=O)N1CCC[C@H]1C(=O)N[C@@H](CO)C(=O)N[C@@H](CO)C(=O)NCC(=O)N[C@@H](C)C(=O)N1CCC[C@H]1C(=O)N1CCC[C@H]1C(=O)N1CCC[C@H]1C(=O)N[C@@H](CO)C(=O)NCC(=O)N[C@H](C(N)=O)[C@@H](C)O [Example 205] | 24.4 | 49.4 | 67.7 | 2.71 | 397 | 0.16 | 234 | 8.98 |  |  |  |  |  |  |  |
| H-Y[Aib]QGTFTSDFSK[αMeL]LDKK([AEEA-γGlu-C18 diacid])AQ[Aib]AFIEYLIEGGPSSGAPPPSEG-NH2 [Example 49] | 44.9 | 37.2 | 53.2 | 0.706 | 1310 | 0.324 | 151 | 5.54 |  |  |  |  |  |  |  |
